Assays:
[1] = system: human keratinocytes; assay: In vitro treatment of human keratinocytes with GM1485 with or without rhIGF2 (Oct4, Sox2); type: cell-based
[2] = system: normal human dermal fibroblasts (NHDF); assay: Oct4 immunostaining of normal human dermal fibroblasts cultured with GM1485; type: cell-based; settings: GM1485 100 μM in serum free medium, 72 hours, versus vehicle
Procedure: The fibroblasts were harvested from a skin sample was taken from the face of a human cadaver. The skin sample was cut into small fragments and digested with dispase overnight (4° C.). Thereafter the epidermis was separated from the dermis. The dermis fragments were further digested with collagenase for approximately 1 h at 37° C., and then diluted with culture medium and filtered to obtain a suspension of dermal cells. The dermal cells were next purified via magnetic bead separation to yield normal human dermal fibroblasts (“NHDFs”). Second passage normal human dermal fibroblasts (NHDF) were seeded onto poly-D-lysine coated coverslips within wells of 24-well plates, at a density of 4,000 cells/well and cultured overnight in NHDF growth medium from PromoCell GmbH (NHDF GM) consisting of: The NHDF GM was aspirated, the wells were rinsed twice with Hank's balanced salt solution (HBSS), and 400 μL of serum free medium (SFM) supplemented with GM1485 at a final concentration of 100 μM or the vehicle the drug vehicle (SFM). […]

[3] = system: Adult, facial skin-derived human fibroblasts; assay: IGF2 blockade during GM1485-mediated iPS induction and neural re-differentiation of human fibroblasts; type: cell-based
Procedure: To test the role of IGF2 in GM1485-mediated iPS induction, an α-IGF2 blocking antibody was included at the onset of induction and maintained in culture for three days.
Adult, facial skin-derived human fibroblasts were cultured in the presence of 100 μM GM1485 in chemically defined medium for 72 hours with (b) or without (a) 40 ng/ml mAb IGF2, a neutralizing antibody (Abcam, Inc.). One set of cells was fixed and stained with rabbit αOct4 (a and b). IGF2 signaling is required of the reprogramming from somatic cells to iPS cells. On the chance that the cells maintained plasticity, cells were continued in culture, but they were switched to culture conditions under which ES cells differentiate along a neural pathway. In specific, the cells were rinsed in PBS and cultured with chemically defined medium supplemented with rhFGF2, 10 ng/ml for an additional 72 hours, after which the cells were rinsed in PBS and the culture medium was replaced with chemically defined medium supplemented with rhEGF, 20 ng/ml. After seven days the cells were rinsed in PBS, fixed in 4% paraformaldehyde in PBS, and processed for immunocytochemistry with TuJ1, a mAb that recognizes neuron-specific βIII-Tubulin.

[4] = system: IGF2 expression; assay: cDNA array analysis of gene expression after initiating reprogramming with GM1485; type: cell-based, human; settings: 48 hours after initiating reprogramming, GM1485 versus vehicle treated cells
Procedure: It has previously been shown that RIL treatment alters gene expression and that the biologic effects of these compounds are dependent upon cell-cell signaling. Included among these changes are alterations in the secretion of soluble factors (Lowry W E et al. 2008, Proc Natl Acad Sci USA 105, 2883-2888). To begin to explore what changes in gene expression might play a role GM1485-mediated iPS induction, RNA for cDNA array analysis was harvested from GM1485 and vehicle treated cells 48 hours after initiating reprogramming with GM1485.

[5] = system: adult rats; assay: Cardiac ischemic injury (left anterior descending artery ligation) in adult rats; type: in vivo, rat; settings: 5 mg/kg daily intraperitoneal, 30 days after infarction
Procedure: Adult rats underwent thoracotomy, the heart was isolated, the left anterior descending artery was identified and ligated at its branch point from the left circumflex artery, causing a massive infarction of the left ventricle. The chest was closed, lungs reinflated and the skin closed. The animals began a 30 day regimen of daily intraperitoneal injections of either GM1485 at 5 mg/kg or the saline vehicle in which it was dissolved. On the 30th day after infarction the animals were sacrificed, the hearts harvested, fixed and cryosectioned. […] The histology of the vehicle treated tissue is consistent with an extensive myocardial infarction. […] FIG. 5 is a 2×2 matrix of photomicrographs of cardiac tissue 30 days after infarction and treatment with either vehicle in the top two slides or GM1485 in the bottom two slides. The left upper and lower sections were stained with an αOct4 antiserum and the right upper and lower sections were stained with αSox2 (mAb R&D Systems). Only the GM1485 treated cardiac tissue expresses Oct4 and/or Sox2.

[6] = system: murine fibroblasts, 3T3 cells; assay: Oct4 immunostaining of murine fibroblasts (3T3 cells) cultured with GM1485; type: cell-based; settings: GM1485 versus vehicle, no neural induction
Procedure: In another experiment, the murine fibroblasts, 3T3 cells were cultured in accordance with the protocol described, supra., for Example 1, except that they were not entered into a neural induction environment. Rather, the murine fibroblasts were fixed and stained with rabbit αOct4 antibody. The photomicrographs in FIG. 3 were taken using bright field microscopy using a 20× objective, except the inset, which is a 20× phase contrast photomicrograph of the same microscopic field into which it is set. The arrows point to the corresponding nuclei in the bright field and phase micrographs of the vehicle treated murine fibroblasts. Only the GM1485 treated murine fibroblasts express Oct4.

[7] = system: human fibroblasts; assay: Reprogramming of GM1485-treated human fibroblasts under neural inducing conditions (GFAP, TuJ1 staining); type: cell-based; settings: GM1485 100 μM, then FGF2 72 hours and rhEGF 7 days
Procedure: On day one of this experiment, the human fibroblasts, were plated, grown overnight as described above and then changed to DMEM supplemented with 10% heat inactivated FCS, 1% DMEM non-essential amino acids (Gibco), penicillin/streptomycin/glutamine (Gemini Bioproducts) and amphotericin B with or without GM1485 for 1 day, and reduced the concentration of serum over an 16 h period until the serum was absent, however the concentration of GM1485 was maintained at 100 μM throughout. The cells were maintained in SFM+/−GM1485 and 10 ng/mL FGF2 for 72 hours. On day 4 of the experiment, the culture environment was changed to 0.5 mL of a SFM without FGF2, but with rhEGF at 20 ng/ml. The cells were maintained in SFM supplemented with 20 ng/ml rhEGF for an additional 7 days. On the 11th day all the cells were fixed by aspirating the medium from the wells and replacing it with 0.5 mL/well of 4% paraformaldehyde in phosphate buffered saline (“PBS”) for 15 minutes at room temperature. Thereafter, the cells were briefly rinsed with PBS at room temperature, then washed with PBS at room temperature in three cycles of 5 minutes each. […] FIG. 2 is comprised of a set of 4 fluorescence photomicrographs, shown in inverted mode to allow full visualization in grayscale. […]

CCC(C)(C)C(=O)C(=O)N1CCC[C@H]1C(=O)O [GM1485, (2S)-1-(3,3-dimethyl-1,2-dioxopentyl)-2-pyrrolidinecarboxylic acid]
iPS induction ([1]; GM1485 alone, in vitro): has not previously resulted in iPS induction | Oct4 and Sox2 expression ([1]; GM1485 with rhIGF2 included in cultures): upregulate Oct4 and Sox2 with the same kinetics as treated fibroblasts | Oct4 expression (anti-OCT 3/4 immunostaining) [2]: upregulation of Oct4 | differentiation to neuronal cells (TuJ1, βIII-Tubulin) ([3]; 100 μM GM1485 72 hours without IGF2 blockade, then rhFGF2 72 hours, rhEGF seven days): differentiated to neuronal cells | reprogramming to iPS cells (rabbit αOct4 staining) ([3]; 100 μM GM1485, 72 hours, without IGF2 blockade): reprogrammed | IGF2 expression increase [4]: 550% | number of genes upregulated by 2 fold or more [4]: Over 100 | histology of heart tissue (H&E stained section) ([5]; versus saline vehicle): consistent with normal myocardium | Oct4 and Sox2 expression in cardiac tissue ([5]; versus vehicle): Oct4 and Sox2 are upregulated | Oct4 expression (rabbit αOct4 staining) [6]: express Oct4 | reprogramming of fibroblasts to neurons or astrocytes (GFAP, TuJ1) [7]: acquire the ability to be reprogrammed to an alternative cell fate
